Results on one substance are retold here after BindingDB's records for PubMed 7815359 (University of Pennsylvania, 1995).

In this experiment the target is Mu-type opioid receptor (Rattus norvegicus, UniProt P33535).
Sequence of Mu-type opioid receptor (P33535 whole entry): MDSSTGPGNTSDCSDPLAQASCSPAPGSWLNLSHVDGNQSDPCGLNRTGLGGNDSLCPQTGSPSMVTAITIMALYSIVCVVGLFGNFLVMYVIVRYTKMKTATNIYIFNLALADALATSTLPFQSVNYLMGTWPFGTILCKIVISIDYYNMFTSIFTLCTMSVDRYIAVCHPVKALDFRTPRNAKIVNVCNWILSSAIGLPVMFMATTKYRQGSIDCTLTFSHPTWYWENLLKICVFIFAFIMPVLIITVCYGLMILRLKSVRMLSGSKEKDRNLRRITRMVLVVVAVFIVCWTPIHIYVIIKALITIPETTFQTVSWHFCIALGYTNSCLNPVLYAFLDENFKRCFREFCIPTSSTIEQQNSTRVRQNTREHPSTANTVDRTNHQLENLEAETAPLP

Regarding “H-YGGFMTSEKSQTPLVTLFKNAIVKNAHKKGQ-OH [Beta-Endorphin]”, the inhibition constant (Ki) – broadly, a measure of affinity in units of concentration, obtained from inhibition or displacement – came out at 1.7 nM.
